Measured values from publication PMC5461367, “Neurologically Potent Molecules from Crataegus oxyacantha; Isolation, Anticholinesterase Inhibition, and Molecular Docking” (Frontiers in Pharmacology, 2017).
“And” between values parts separate entries of the source, which are not always exact repeats. Equal entries are not always repeated. Where two headings read alike, the source gives them in different places.

Experiments:
human brain based AChE = details: ref Harvey, 1995; cited from earlier work
BChE = BChE (Homo sapiens, UniProt P06276); assay: biochemical; details: for inhibition at 62.5 µg/mL / inhibition at 250 µg/mL: read-out: % BChE inhibition; for IC50: read-out: BChE IC50 (μM ± SEM)
Chain of BChE (P06276 29-602): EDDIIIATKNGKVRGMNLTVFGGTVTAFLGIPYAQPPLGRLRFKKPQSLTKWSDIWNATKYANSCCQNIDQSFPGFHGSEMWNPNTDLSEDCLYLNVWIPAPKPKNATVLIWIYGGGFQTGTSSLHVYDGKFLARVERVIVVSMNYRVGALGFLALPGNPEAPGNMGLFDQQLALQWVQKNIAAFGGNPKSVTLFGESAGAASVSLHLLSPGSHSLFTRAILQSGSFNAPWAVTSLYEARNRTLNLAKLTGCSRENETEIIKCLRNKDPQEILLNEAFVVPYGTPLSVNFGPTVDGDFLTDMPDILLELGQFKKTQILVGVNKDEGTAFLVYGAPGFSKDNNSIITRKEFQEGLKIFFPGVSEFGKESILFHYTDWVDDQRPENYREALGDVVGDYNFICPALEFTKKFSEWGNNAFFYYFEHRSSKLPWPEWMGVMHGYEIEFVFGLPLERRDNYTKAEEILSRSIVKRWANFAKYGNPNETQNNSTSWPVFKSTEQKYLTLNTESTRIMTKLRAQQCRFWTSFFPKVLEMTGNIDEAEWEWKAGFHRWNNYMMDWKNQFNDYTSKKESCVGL
Protocol: (§1) This yellow compound is UV detectable and is quantified with the passage of time with and without the impact of inhibitor agent. Briefly, from each enzyme solution, 5 μl were added to wells of micro plate and 5 μl DTNB was added to it. The resultant mixture was incubated for 15 min at 30°C in water bath followed by addition of 5 μl substrate solution. […] Control contains all solutions except inhibitor. Change in absorbance was recorded along with reaction time. At the end, Enzymes and enzymes inhibitory activities by control and our test samples were calculated from the rate of absorption with change in time as (V = Δ Abs /Δ t) and Enzyme inhibition as; Percent Enzyme activity = 100 × V/VMax.
(§2) Where, VMax is enzyme activity in the absence of inhibitor agent.

AChE = AChE (Homo sapiens, UniProt P22303); assay: biochemical; details: for inhibition at 62.5 µg/mL: 62.5 μg/ml; for inhibition at 250 µg/mL: 250 μg/ml; for IC50: read-out: AChE IC50 (μM ± SEM)
Chain of AChE (P22303 32-614): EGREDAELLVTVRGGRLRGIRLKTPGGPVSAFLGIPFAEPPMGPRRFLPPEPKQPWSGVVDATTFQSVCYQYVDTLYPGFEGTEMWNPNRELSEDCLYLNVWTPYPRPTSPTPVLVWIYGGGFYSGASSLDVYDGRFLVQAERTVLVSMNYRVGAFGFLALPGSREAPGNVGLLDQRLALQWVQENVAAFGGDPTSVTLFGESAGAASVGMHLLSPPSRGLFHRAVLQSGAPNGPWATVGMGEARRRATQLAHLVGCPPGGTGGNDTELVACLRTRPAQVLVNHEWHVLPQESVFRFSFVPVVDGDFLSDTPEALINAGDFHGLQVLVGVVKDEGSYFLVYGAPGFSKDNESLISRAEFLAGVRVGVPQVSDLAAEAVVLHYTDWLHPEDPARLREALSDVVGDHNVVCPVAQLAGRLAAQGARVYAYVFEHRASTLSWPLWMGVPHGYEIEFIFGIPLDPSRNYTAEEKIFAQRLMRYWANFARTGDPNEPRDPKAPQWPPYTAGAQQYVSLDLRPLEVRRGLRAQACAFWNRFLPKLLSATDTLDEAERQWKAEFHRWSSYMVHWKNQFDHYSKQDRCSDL
Protocol: as §1, §2

[1] = ratio of IC50 values, footnote b not given
[2] = ratio of IC50 values, footnote a not given

For `COc1ccc2c3c1O[C@H]1C[C@@H](O)C=C[C@@]31CCN(C)C2` [Galantamine, reference compound], the “lower potency against human brain based AChE as compared to RBCs variant” value (human brain based AChE) is listed as 10 times, the inhibition at 62.5 µg/mL (BChE) is listed as 87.8 ± 1.01% and the inhibition at 250 µg/mL (BChE) is listed as 95.3 ± 1.09%.
`C=C(C)[C@@H]1CC[C@]2(C)CC[C@]3(C)[C@H](CC[C@@H]4[C@@]5(C)CC[C@H](O)C(C)(C)[C@@H]5CC[C@]43C)[C@@H]12` [Compound 4, Lupeol] gave an inhibition at 62.5 µg/mL (BChE; 62.5 μg/ml) of 85.8 ± 1.5%, an inhibition at 250 µg/mL (BChE; 250 μg/ml) of 91.42 ± 0.43% and a BChE selectivity (BChE; [1]) of 27.71. The IC50 (BChE) was 1.31 ± 0.12 µM, the inhibition at 62.5 µg/mL (AChE) was 77.87 ± 0.26% and the inhibition at 250 µg/mL (AChE) was 93.73 ± 0.78%. It also gave an AChE selectivity (AChE; [2]) of 0.04 and an IC50 (AChE) of 36.3 ± 1.89 µM.
`O=c1cc(-c2ccccc2)oc2cc(O)cc(O)c12` [Compound 9, 5,7-Dihydroxyflavone] showed an inhibition at 62.5 µg/mL (BChE; 62.5 μg/ml) of 80.9 ± 1.9%, an inhibition at 250 µg/mL (BChE; 250 μg/ml) of 85% and a BChE selectivity (BChE; [1]) of 51.27. It also gave an IC50 (BChE) of 0.63 ± 0.06 µM, an inhibition at 62.5 µg/mL (AChE) of 81.2 ± 0.23% and an inhibition at 250 µg/mL (AChE) of 93.67 ± 0.88%. For the same compound, the AChE selectivity (AChE; [2]) was 0.02 and the IC50 (AChE) was 32.3 ± 1.8 µM.
With `C=C(C)[C@@H]1CC[C@]2(C(=O)O)CC[C@]3(C)[C@H](CC[C@@H]4[C@@]5(C)CC[C@H](O)C(C)(C)[C@@H]5CC[C@]43C)[C@@H]12` [Compound 7, 3β-Dihydroxylup-20(29)-ene-28-oic Acid] the inhibition at 62.5 µg/mL (BChE; 62.5 μg/ml) was 87.2 ± 1.28%, the inhibition at 250 µg/mL (BChE; 250 μg/ml) was 94.1 ± 0.6% and the BChE selectivity (BChE; [1]) was 12.78. The IC50 (BChE) was 3.48 ± 0.15 µM, the inhibition at 62.5 µg/mL (AChE) was 77.7 ± 1.25% and the inhibition at 250 µg/mL (AChE) was 95.7 ± 1.6%. The AChE selectivity (AChE; [2]) was 0.07 and the IC50 (AChE) was 44.5 ± 1.73 µM.
With `CC[C@H](CC[C@@H](C)[C@H]1CC[C@H]2[C@@H]3CC=C4C[C@@H](O)CC[C@]4(C)[C@H]3CC[C@]12C)C(C)C` [Compound 5, β-Sitosterol] the BChE selectivity (BChE) was 26.62, the inhibition at 62.5 µg/mL (BChE; 62.5 μg/ml) was 87.08 ± 0.47% and the inhibition at 250 µg/mL (BChE; 250 μg/ml) was 92.6 ± 1.12%. The IC50 (BChE) was 0.55 µM and 0.56 µM, the AChE selectivity (AChE) was 0.04 and the inhibition at 62.5 µg/mL (AChE) was 80%. For the same compound, the inhibition at 250 µg/mL (AChE) was 91.33 ± 0.49% and the IC50 (AChE) was 14.6 ± 0.85 µM.
`C=C(C)[C@@H]1CC[C@]2(CO)CC[C@]3(C)[C@H](CC[C@@H]4[C@@]5(C)CC[C@H](O)C(C)(C)[C@@H]5CC[C@]43C)[C@@H]12` [Compound 6, 3β, 28-Dihydroxylup-20(29)-ene] showed an inhibition at 62.5 µg/mL (BChE; 62.5 μg/ml) of 82.5 ± 0.9%, an inhibition at 250 µg/mL (BChE; 250 μg/ml) of 95.8 ± 2.25% and a BChE selectivity (BChE; [1]) of 0.93. For the same compound, the IC50 (BChE) was 25.6 ± 1.25 µM, the inhibition at 62.5 µg/mL (AChE) was 84 ± 1.15% and the inhibition at 250 µg/mL (AChE) was 96.13 ± 0.2%. The AChE selectivity (AChE; [2]) was 1.06 and the IC50 (AChE) was 24 ± 1.1 µM.
`COc1cc(C(=O)CCO)ccc1O` [Compound 2, 3-Hydroxy-1-(4-Hydroxy-3-Methoxyphenyl) Propan-1-One] showed an inhibition at 62.5 µg/mL (BChE; 62.5 μg/ml) of 87.6 ± 1.06%, an inhibition at 250 µg/mL (BChE; 250 μg/ml) of 95.76 ± 0.71% and a BChE selectivity (BChE; [1]) of 1.69. The IC50 (BChE) was 15.4 ± 1.01 µM, the inhibition at 62.5 µg/mL (AChE) was 83.74 ± 0.68% and the inhibition at 250 µg/mL (AChE) was 93.05 ± 0.75%. The AChE selectivity (AChE; [2]) was 0.59 and the IC50 (AChE) was 25.9 ± 1.35 µM.
`CCC(CCC(C)C1CCC2C3CC=C4CC(OC5OC(CO)C(O)C(O)C5O)CCC4(C)C3CCC12C)C(C)C` [Compound 3, β-Sitosterol-3-O-β-D-Glucopyranoside] gave an inhibition at 62.5 µg/mL (BChE; 62.5 μg/ml) of 83.03 ± 0.35%, an inhibition at 250 µg/mL (BChE; 250 μg/ml) of 94.84 ± 0.3% and a BChE selectivity (BChE; [1]) of 0.47. It also gave an IC50 (BChE) of 11.8 ± 0.93 µM, an inhibition at 62.5 µg/mL (AChE) of 87.9 ± 0.52% and an inhibition at 250 µg/mL (AChE) of 95.7 ± 1.6%. For the same compound, the AChE selectivity (AChE; [2]) was 2.26 and the IC50 (AChE) was 5.22 ± 0.59 µM.
`COc1ccc(C(CO)OC)cc1OC` (stereo not shown) [Compound 1, 2-(3,4-Dimethoxyphenyl)-2-Methoxyethanol] showed an inhibition at 62.5 µg/mL (BChE; 62.5 μg/ml) of 84.3 ± 2.19%, an inhibition at 250 µg/mL (BChE; 250 μg/ml) of 90.7 ± 1.34% and a BChE selectivity (BChE; [1]) of 9.62. The IC50 (BChE) was 2.41 ± 0.09 µM, the inhibition at 62.5 µg/mL (AChE) was 89.7 ± 1.47% and the inhibition at 250 µg/mL (AChE) was 97.3 ± 1.06%. The AChE selectivity (AChE; [2]) was 0.10 and the IC50 (AChE) was 23.2 ± 1.02 µM.
